Test results: patent US20210338613A1, “FORMULATIONS AND METHODS FOR TRANSDERMAL ADMINISTRATION OF KETONES” (DYVE BIOSCIENCES, INC., priority 2018, published 2021)

How the values were obtained:
[1] = Distance run on a treadmill (Example 4); type: in vivo, Wistar rats; conditions: 5 days; topical = Formulation D 100 μL twice daily; ketone ester as 30% of calories
Method: (§1) In vivo tests were performed as follows: Wistar rats were treated with either topically applied βHB or a ketone ester diet. The experiment lasted for 5 days. Trial design was built to assess these primary outcomes: the effects on distance run on a treadmill, and on time to complete an 8 arm radial maze. Treatment groups randomized as follows: a. Control Group: standard diet (calorically matched to all treatment groups) b. Treatment Group 1: ketone ester diet with chow that is supplemented with (R)-3-hydroxybutyl (R)-3-hydroxybutyrate as 30% of calories c. […] Formulations detailed below [table]

[2] = Time to complete an 8 arm radial maze (Example 4); type: in vivo, Wistar rats; conditions: 5 days; topical = Formulation D 100 μL twice daily; ketone ester as 30% of calories
Method: as §1

[3] = system: firefly luciferase-tagged syngeneic VM-M3 cells; assay: Survival of VM mice with metastatic cancer (Example 2); type: in vivo; conditions: VM-M3 implanted VM mice
Method: In this experiment, β-hydroxybutyrate (βHB) in formulations of the disclosure was tested for its ability to decrease tumor cell viability and prolong survival and compared to an orally delivered diet supplemented with either 1,3-butanediol (BD) or a ketone ester (KE), which are metabolized to the ketone bodies βHB and acetoacetate.
In vivo tests were performed as follows: Adult male inbred VM mice were implanted subcutaneously with firefly luciferase-tagged syngeneic VM-M3 cells. The mice were then fed a standard diet with no topical treatment, a standard diet supplemented with either 1,3-butanediol (BD) or a ketone ester (KE), or a standard diet with topically applied βHB. Trial design was built to assess this primary outcome: survival time. Treatment groups randomized as follows: […]
a. Control Group: standard diet rodent chow b. Treatment Group 1: standard diet rodent chow mixed with 20% 1,3-butanediol (BD) by volume and 1% saccharin for palatability c. Treatment Group 2: standard diet rodent chow mixed with 10% ketone esters (KE) by volume and 1% saccharin for palatability d. Treatment Group 3: standard diet rodent chow with 100 μL of βHB formulation applied topically twice daily. Formulations detailed below

[4] = Blood glucose levels in rats after ketone supplements (Example 5); type: in vivo, Sprague-Dawley rats; conditions: 10 g/kg intragastric gavage; 4-week study
Method: In this experiment, β-hydroxybutyrate (βHB) in formulations of the disclosure was tested for its ability to impact blood ketone and glucose levels and compared to oral delivery of various exogenous ketone supplements.
The experiment lasted for 28 days. Trial design was built to assess these primary outcomes: the effects on blood ketones and blood glucose. Blood samples were taken for analysis of glucose and βHB at baseline and, 0.5, 1, 4, 8, and 12 h post-treatment. Treatment groups randomized as follows:
Treatment Group 1: daily 10 g/kg dose via intragastric gavage of 1,3-butanediol (BD)
Treatment Group 2: daily 10 g/kg dose via intragastric gavage of sodium/potassium β-hydroxybutyrate (βHB) mineral salt (BMS)
Treatment Group 3: daily 10 g/kg dose via intragastric gavage of medium chain triglyceride oil (MCT)
Treatment Group 5: daily 10 g/kg dose via intragastric gavage of 1,3 butanediol acetoacetate diester (KE)
g. Treatment Group 6: 100 μL of βHB formulation applied topically daily.

tumors = assay: Survival of tumor-bearing mice treated with PI3K inhibitor BKM120 (Example 3); type: in vivo, C57/BL6 mice; conditions: Treatment Group 1: BKM120 37.5 mg/kg daily oral gavage with standard chow; not statistically different from Control (6.1 days)
Method: In this experiment, β-hydroxybutyrate (βHB) in formulations of the disclosure was tested for its ability to enhance the efficacy of PI3K inhibitors and compared to a ketogenic diet.
In vivo tests were performed as follows: C57/BL6 mice 8 weeks of age They were injected with […] cells in a 1:1 mix of growth media and matrigel. and tumors were allowed to grow to a minimum diameter of 0.6 cm before the initiation of treatment. All mice were treated daily with the P3K inhibitor BKM120 (37.5 mg/kg) by oral gavage and were given either a normal chow diet, a ketogenic diet, or a normal chow diet with there topically applied βHB. Trial design was built to assess this primary outcome: survival time. Treatment groups randomized as follows: […]
b. Treatment Group 1: BKM120 treatment with standard rodent chow c. Treatment Group 2: BKM120 treatment with ketogenic rodent chow d. Treatment Group 3: BKM120 treatment with standard rodent chow with 100 μL of βHB formulation applied topically twice daily. Formulations detailed below

C[C@@H](O)CCOC(=O)C[C@@H](C)O [ketone ester diet, (R)-3-hydroxybutyl (R)-3-hydroxybutyrate]
mean increase in treadmill distance vs control [1]: 32%
mean decrease in time to solve the maze vs control [2]: 38%

CC(O)CCO (stereo not drawn) [oral BD, 1,3-butanediol]
mean increase in mean survival time versus Control Group ([3]; BD 20% or KE 10% in chow, topical = Formulation B 100 μL twice daily): 50.6%
mean survival time ([3]; Control Group 31.2 days, topical = Formulation B): 47.0 days
effect on blood glucose [4]: did not significantly change blood glucose levels at any time point

Nc1cc(C(F)(F)F)c(-c2cc(N3CCOCC3)nc(N3CCOCC3)n2)cn1 [BKM120]
mean survival time (tumors): 6.7 days
